By EC50 is commonly meant the concentration that produces a half-maximal response.

One assay addresses T1, NTCP (Homo sapiens, UniProt Q14973).
T1 construct: expressed in transfected cells; host or cells: HepG2-NTCP (clone A3, kept under puromycin)
T1 sequence (Q14973 1-349): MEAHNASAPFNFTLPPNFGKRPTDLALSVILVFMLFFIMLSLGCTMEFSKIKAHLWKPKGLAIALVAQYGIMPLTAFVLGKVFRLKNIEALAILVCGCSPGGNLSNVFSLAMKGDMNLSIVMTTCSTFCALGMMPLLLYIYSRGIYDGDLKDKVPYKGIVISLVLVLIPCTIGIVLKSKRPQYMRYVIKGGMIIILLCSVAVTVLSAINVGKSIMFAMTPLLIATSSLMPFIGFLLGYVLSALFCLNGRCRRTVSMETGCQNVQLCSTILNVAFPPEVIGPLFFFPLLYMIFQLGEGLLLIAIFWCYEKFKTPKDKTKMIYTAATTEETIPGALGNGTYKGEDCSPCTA
Description: HepG2-NTCP preS1 binding competition assay (FITC-labeled myristoylated preS1 peptide). As to conditions: HepG2-NTCP cells; competition with FITC-labeled preS1 peptide. The method, then:
HepG2-NTCP preS1 Binding Competition Assay
Myristoylated preS1 peptide (2-48 aa) conjugated to a C-terminal FITC tag was synthesized to evaluate preS1 binding to NTCP-expressing cells. HepG2-NTCP cells seeded in 384-wells were pre-treated with compounds for 2 hours prior to the addition of FITC-labeled preS1 peptide. After co-incubation for 30 minutes, unbound FITC-preS1 peptide was washed twice with PBS, and the fluorescence of preS1-FITC bound to cell surface was detected by Envision plate reader. EC50 ranges are as follows: A<0.1 μM; B 0.1-1 μM; C>1 μM.

Another assay deals with HBV. Description: HBV infection in HepG2-NTCP cells (HBeAg AlphaLISA in supernatants). The assay is classed as cell-based. As to conditions: Hepatitis B virus, 192 h; HBV infection of HepG2-NTCP cells; HBeAg in supernatants at day 8 post infection; read-out: Cellular EC50. Put shortly:
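HepG2-NTCP A3 cells were pre-incubated 2 h with 3-fold serially diluted compounds, then infected with HBV at 2000 GE/cell with 4% PEG (0.5% DMSO final). After washing on day 1, cells stayed in 2.5% DMSO medium; supernatant HBeAg measured by AlphaLISA on day 8, EC50 versus DMSO controls.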

`CN1[C@H](C2CCCCC2)CN(c2ccccc2)c2cc(Cl)c(N3CC[C@@H](C(=O)O)C3)cc2S1(=O)=O` [Example 610]: the EC50 on NTCP is 100 to 1000 nM. The same measure, in the same setting: the result for `CN1[C@H](C2CCCCC2)CN(c2ccccc2)c2cc(Cl)c(-c3cc(Cl)c(N)c(C(=O)O)c3)cc2S1(=O)=O` [Example 192] reads 100 to 1000 nM; that for `CN1[C@H](C2CCCCC2)CN(c2ccccc2)c2cc(Cl)c(-c3ccc(S(N)(=O)=O)s3)cc2S1(=O)=O` [Example 201], over 1000 nM. Still for that read-out and setting: for `CN1[C@H](C2CCCCC2)CN(c2ccccc2)c2cc(Cl)c(N3CC[C@H](C(=O)O)C3)cc2S1(=O)=O` [Example 611] the value was 100 to 1000 nM.

On NTCP, `CN1[C@H](C2CCCCC2)CN(c2ccccc2)c2cc(Cl)c(-c3ccc(S(=O)(=O)NC(=O)c4ccccc4)s3)cc2S1(=O)=O` [Example 226] returned an EC50 of 100 to 1000 nM. The same measure, in the same setting: for `CN1[C@H](C2CCCCC2)CN(c2ccccc2)c2cc(Cl)c(-c3cc(NC(=O)OCCOC(C)(C)C)c(C(=O)O)s3)cc2S1(=O)=O` [Example 262] the value was under 100 nM; for `CN(C)C(=O)c1ccc(N2C[C@@H](C3CCCCC3)N(C)S(=O)(=O)c3cc(-c4ccc(F)c(C(=O)O)c4)c(Cl)cc32)cc1` [Example 315], over 1000 nM. In turn, `CN1[C@H](C2CCCCC2)CN(c2ccccc2)c2cc(O[C@H]3C[C@H](O)C3)c(-c3cc(F)c(C(=O)O)s3)cc2S1(=O)=O` [Example 503] showed an EC50 at NTCP of 100 to 1000 nM. On the same count and under the same terms, for `COCCCOC(=O)Nc1cc(-c2cc3c(cc2Cl)N(c2ccccc2)C[C@@H](C2CCCCC2)N(C)S3(=O)=O)sc1C(=O)O` [Example 263] the value was under 100 nM; for `COC1CC(OC(=O)Nc2cc(-c3cc4c(cc3Cl)N(c3ccccc3)C[C@@H](C3CCCCC3)N(C)S4(=O)=O)sc2C(=O)O)C1` (stereo partly drawn) [Example 264], under 100 nM. As to `CN1[C@H](C2CCCCC2)CN(c2ccccc2)c2cc(C#Cc3ccsc3)c(-c3ccc(F)c(C(=O)O)c3)cc2S1(=O)=O` [Example 602, (R)-5-(3-cyclohexyl-2-methyl-1,1-dioxido-5-phenyl-7-(thiophen-3-ylethynyl)-2,3,4,5-tetrahydrobenzo[f][1,2,5]thiadiazepin-8-yl)-2-fluorobenzoic acid], in the assay on HBV, the EC50 is under 100 nM.

On to `CN1[C@H](C2CCCCC2)CN(c2ccccc2)c2cc(OC3CCNCC3)c(-c3ccc(F)c(C(=O)O)c3)cc2S1(=O)=O` [Example 394, (R)-5-(3-cyclohexyl-2-methyl-1,1-dioxido-5-phenyl-7-(piperidin-4-yloxy)-2,3,4,5-tetrahydrobenzo[f][1,2,5]thiadiazepin-8-yl)-2-fluorobenzoic acid], for which the EC50 in the assay with HBV was over 1000 nM. On the same count and under the same terms, the result for `CC(C)C[C@@H]1CN(C(C)C)c2cc(Oc3ccccc3F)c(-c3ccc(F)c(C(=O)O)c3)cc2S(=O)(=O)N1C` [Example 468] reads 100 to 1000 nM; that for `CN1[C@H](C2CCCCC2)CN(c2ccccc2)c2cc(Cl)c(-c3cc(NC(=O)OCC4CC4)c(C(=O)O)s3)cc2S1(=O)=O` [Example 252], under 100 nM. On the same count and under the same terms, for `Cc1sc(-c2cc3c(cc2Cl)N(c2ccccc2)C[C@@H](C2CCCCC2)N(C)S3(=O)=O)cc1C(=O)O` [Example 122] the value was under 100 nM; for `CC(C)C[C@@H]1CN(c2ccccc2)c2cc(Cl)c(-c3ccc(O)c(C(=O)O)c3)cc2S(=O)(=O)N1C` [Example 160, (R)-5-(7-chloro-3-isobutyl-2-methyl-1,1-dioxido-5-phenyl-2,3,4,5-tetrahydrobenzo[f][1,2,5]thiadiazepin-8-yl)-2-hydroxybenzoic acid], under 100 nM; for `CN1[C@H](C2CCCCC2)CN(c2ccccc2)c2cc(Cl)c(-c3ccc(Cl)c(C(=O)O)c3)cc2S1(=O)=O` [Example 26], under 100 nM. On to `CN1[C@H](C2CCCCC2)CNc2cc(-c3ccccc3F)c(-c3ccc(F)c(C(=O)O)c3)cc2S1(=O)=O` [Example 569, (R)-5-(3-cyclohexyl-7-(2-fluorophenyl)-2-methyl-1,1-dioxido-2,3,4,5-tetrahydrobenzo[f][1,2,5]thiadiazepin-8-yl)-2-fluorobenzoic acid], for which the EC50 with HBV was under 100 nM.

With `CN1C(c2cnn(C)c2)CN(c2ccccc2)c2cc(Cl)c(-c3ccc(F)c(C(=O)O)c3)cc2S1(=O)=O` (stereo not drawn) [Example 79], in the assay with HBV, the EC50 is 100 to 1000 nM. On the same count and under the same terms, for `CN1[C@H](C2CCCCC2)CN(c2cccc(C(F)(F)F)c2)c2cc(Cl)c(-c3ccc(F)c(C(=O)O)c3)cc2S1(=O)=O` [Example 301] the value was 100 to 1000 nM; for `CN1[C@H](C2CCCCC2)CN(c2ccccc2)c2cc(F)c(-c3ccc(N)c(C(=O)O)c3)cc2S1(=O)=O` [Example 158], 100 to 1000 nM; for `CC(C)C[C@@H]1CN(c2ccccc2)c2cc(Cl)c(-c3cccc(C4(C(=O)O)CC4)c3)cc2S(=O)(=O)N1C` [Example 162], over 1000 nM. Consider `CCCC[C@@H]1CN(c2ccccc2)c2cc(Oc3ccccc3Cl)c(-c3ccc(F)c(C(=O)O)c3)cc2S(=O)(=O)N1C` [Example 422], for which the EC50 in the assay on HBV was 100 to 1000 nM. The same measure, in the same setting: for `CCCC[C@H]1CN(c2ccccc2)c2cc(N(C)c3ccc(F)cc3)c(-c3cccc(C(=O)O)c3)cc2S(=O)(=O)N1C` [Example 541] the value was over 1000 nM; for `CC(C)C[C@@H]1CN(c2ccccc2)c2cc(Cl)c(-c3ccc(OC(F)(F)F)c(C(=O)O)c3)cc2S(=O)(=O)N1C` [Example 163, (R)-5-(7-chloro-3-isobutyl-2-methyl-1,1-dioxido-5-phenyl-2,3,4,5-tetrahydrobenzo[f][1,2,5]thiadiazepin-8-yl)-2-(trifluoromethoxy)benzoic acid], under 100 nM. On the same count and under the same terms, for `CN1[C@H](C2CCCCC2)CN(c2ccccc2)c2cc(Cl)c(-c3cc(C(=O)O)cs3)cc2S1(=O)=O` [Example 129, (R)-5-(7-chloro-3-cyclohexyl-2-methyl-1,1-dioxido-5-phenyl-2,3,4,5-tetrahydrobenzo[f][1,2,5]thiadiazepin-8-yl)thiophene-3-carboxylic acid] the value was 100 to 1000 nM; for `O=C(O)c1cc(-c2cc3c(cc2F)N(c2ccccc2)CC2CC4(CC4)CN2S3(=O)=O)ccc1F` (stereo not drawn) [Example 7], 100 to 1000 nM; for `CN1[C@H](C2CCCCC2)CN(c2ccccc2)c2cc(Cl)c(-c3ccc(NS(=O)(=O)CCc4ccccc4)c(C(=O)O)c3)cc2S1(=O)=O` [Example 270], under 100 nM. The same measure, in the same setting: for `CN1[C@H](C2CCCCC2)CN(c2ccccc2)c2cc(Cl)c(-c3ccc([N+](=O)[O-])c(C(=O)O)c3)cc2S1(=O)=O` [Example 189, (R)-5-(7-chloro-3-cyclohexyl-2-methyl-1,1-dioxido-5-phenyl-2,3,4,5-tetrahydrobenzo[f][1,2,5]thiadiazepin-8-yl)-2-nitrobenzoic acid] the value was under 100 nM. With `COC(=O)c1noc2ccc(-c3cc4c(cc3Cl)N(c3ccccc3)C[C@@H](CC(C)C)N(C)S4(=O)=O)cc12` [Example 182], the EC50 in the assay with HBV lay within 100 to 1000 nM. Same read-out and setting: for `CC(C)COC(=O)Nc1cc(-c2cc3c(cc2F)N(c2ccccc2)C[C@@H](C2CCCCC2)N(C)S3(=O)=O)sc1C(=O)O` [Example 266] the value was under 100 nM. On the same count and under the same terms, for `CN1[C@H](C2CCCCC2)CN(c2ccccc2)c2cc(Cl)c(-c3sc(C(=O)O)cc3F)cc2S1(=O)=O` [Example 119] the value was under 100 nM. On the same count and under the same terms, for `CN1[C@H](C2CCCCC2)CN(c2ccccc2)c2cc(Oc3ccc(F)c(F)c3)c(-c3ccc(F)c(C(=O)O)c3)cc2S1(=O)=O` [Example 404] the value was under 100 nM; for `CCCC[C@@H]1CN(c2ccccc2)c2cc(-n3nnnc3C)c(-c3ccc(F)c(C(=O)O)c3)cc2S(=O)(=O)N1C` [Example 525], over 1000 nM.

As for `CCCCCCCC[C@@H]1CN(c2ccccc2)c2cc(Cl)c(-c3ccc(C(=O)O)s3)cc2S(=O)(=O)N1C` [Example 84], the EC50 in the assay with HBV was over 1000 nM. Still for that read-out and setting: for `CN1[C@H](C2CCCCC2)CN(c2ccccc2)c2cc(OC3CCCCC3)c(-c3ccc(F)c(C(=O)O)c3)cc2S1(=O)=O` [Example 374] the value was under 100 nM; for `CN1[C@H](C2CCCCC2)CN(c2ccc(C(F)(F)F)cc2)c2cc(Cl)c(-c3ccc(F)c(C(=O)O)c3)cc2S1(=O)=O` [Example 300], under 100 nM. Same read-out and setting: the result for `CN1[C@H](C2CCCCC2)CN(c2ccccc2)c2cc(OCC34CC(C#N)(CO3)C4)c(-c3cc(F)c(C(=O)O)s3)cc2S1(=O)=O` [Example 504] reads under 100 nM. The molecule `CN1[C@H](C2CCCCC2)CN(c2ccccc2)c2cc(OC3COC3)c(-c3ccc(F)c(C(=O)O)c3)cc2S1(=O)=O` [Example 370] had an EC50 at NTCP of 100 to 1000 nM. Take `COC(C)(C)CCOC(=O)Nc1cc(-c2cc3c(cc2Cl)N(c2ccccc2)C[C@@H](C2CCCCC2)N(C)S3(=O)=O)sc1C(=O)O` [Example 261]: the EC50 in the assay with HBV was 100 to 1000 nM. The same measure, in the same setting: the result for `CC(C)C[C@@H]1CN(c2ccccc2)c2cc(OC3CN(C)C3)c(-c3ccc(F)c(C(=O)O)c3)cc2S(=O)(=O)N1C` [Example 447] reads over 1000 nM; that for `CCCC[C@@H]1CN(c2ccccc2)c2cc(N3CCCC3)c(-c3cc(C(=O)O)n(C)n3)cc2S(=O)(=O)N1C` [Example 521], 100 to 1000 nM.

For the origin of these results see patent publication US20240368096A1 (Enanta Pharmaceuticals, Inc., priority 2022, published 2024).
